{"source": "patent US8568969B2", "about": "“RBP4 in insulin sensitivity/resistance, diabetes, and obesity” (Beth Israel Deaconess Medical Center, Inc., priority 2003, dated 2013)", "key": {"[1]": {"test_system": "obese mice on a high fat diet (HFD)", "experiment": "Glucose tolerance test (GTT) in mice on high fat diet", "format": "in vivo, mouse", "conditions": "HFD with 0.04% fenretinide for 16 weeks, 2 g/kg glucose", "description": "(§1) Plasma glucose was measured by glucometer (One Touch Ultra, Lifescan). Insulin (crystal chemical), FFAs (Wako) and adipokines (leptin, adiponectin, and resistin) (LINCO research) were measured using commercially available kits. ITT was performed by i.p. injection of recombinant regular human insulin 3-4 hours after food removal. Different insulin doses were used for different mouse lines and ages as described. GTT was performed by i.p. injection of glucose (1 or 2 g D-glucose per kg body weight) after overnight fasting.\n(§2) To determine the effect of RBP4 independently of transgenic manipulation, adult FVB mice were treated with fenretinide (4-hydroxyphenyl retinamide, 4-HPR), a synthetic retinoid originally designed for cancer therapy. […] Three-week old male FVB mice received chow diet, high fat diet or high fat diet supplemented with 0.04% fenretinide. Fenretinide gel capsules were emptied and added directly to the fat soluble vitamin component of the Harlan-Teklad laboratory high fat diet in at the time of diet preparation. Light exposure was minimized during fenretinide high fat diet preparation. Fenretinide high fat diet was stored in the dark at 4° C. and were placed in mouse cages at 2-3 day intervals. […] Thus, both genetic and pharmacological interventions that decrease RBP4 levels improve insulin sensitivity even in obesity."}, "[2]": {"test_system": "ob/ob mice", "experiment": "Long-term mortality of ob/ob mice", "format": "in vivo, mouse", "conditions": "10 months of treatment, compared to untreated controls", "source_text": "The ob/ob mice at 10 months of age were severely obese."}, "[3]": {"molecular_target": "T1, serum RBP4 (Mus musculus, UniProt Q00724)", "T1 construct": "from tissue; host or cells: mouse serum (FVB and AG4KO mice)", "experiment": "Serum RBP4 levels (immunoblot) in mice fed high fat diet with fenretinide", "format": "in vivo", "conditions": "oral, 0.04% fenretinide in high fat diet, FVB mice", "description": "Serum or plasma RBP4 was measured by diluting the serum or plasma 20 times in a standard detergent-containing buffer, separated by 15% SDS-PAGE, and transferred to nitrocellulose (Kim, Y. B., et al. Diabetes 48:310-320 (1999)). Mouse RBP4 and human RBP4 were detected using anti-rat or anti-human (DAKO, Germany) polyclonal antisera, respectively, followed by standard ECL detection.\nas §2"}, "[4]": {"test_system": "obese mice on a high fat diet (HFD)", "experiment": "Insulin tolerance test (ITT) in mice on high fat diet", "format": "in vivo, mouse", "conditions": "HFD with 0.04% fenretinide, 15 weeks of treatment, 1.1 U/kg insulin", "description": "as §1, §2"}, "[5]": {"molecular_target": "RBP4 with TTR (Homo sapiens, UniProt P02753)", "conditions": "cited from earlier work"}, "[6]": {"test_system": "ob/ob mice", "experiment": "IPGTT in ob/ob mice treated with fenretinide", "format": "in vivo, mouse", "description": "IPGTT (2 mg/g body weight) was performed on mice (12 weeks old) after 8 weeks of diet/treatment (FIG. 26A). Plasma glucose was measured at the indicated times; the open circles represent ob/+, the closed circles represent ob/ob mice and the open squares represent ob/ob mice treated with fenretinide.\nIPGTT (1 mg/g body weight) was performed on mice (42 weeks old). After 38 weeks of diet/treatment (FIG. 26B), plasma glucose was measured at the indicated times; the closed squares are ob/+, the closed circles are ob/+ mice treated with fenretinide; open squares are ob/ob and open circles are ob/ob treated with fenretinide."}, "[7]": {"test_system": "RXR isoforms", "conditions": "in vitro; cited from earlier work"}, "[8]": {"experiment": "Food intake, body weight and obesity on high fat diet", "format": "in vivo, mouse", "conditions": "0.04% fenretinide in high fat diet, FVB mice", "description": "as §2"}}}
{"molecule": "CC1=C(/C=C/C(C)=C/C=C/C(C)=C/C(=O)Nc2ccc(O)cc2)C(C)(C)CCC1", "note": "[fenretinide, 4-hydroxyphenyl retinamide]", "values": [{"measurement": "glucose tolerance (GTT)", "setting": "[1]", "result": "normalized glucose tolerance"}, {"measurement": "long term mortality", "setting": "[2]", "result": "reduced by almost half"}, {"measurement": "serum RBP4 levels", "setting": "[3]", "result": "lowered serum RBP4 levels in obese mice on a high fat diet (HFD) to the level of non-obese control mice on a chow diet"}, {"measurement": "insulin sensitivity (ITT)", "setting": "[4]", "result": "improved insulin sensitivity"}, {"measurement": "interaction of RBP4 with TTR", "setting": "[5]", "result": "disrupts the interaction of RBP4 with TTR"}, {"measurement": "glucose tolerance (IPGTT)", "setting": "[6]; ob/ob mice 12 weeks old, 8 weeks of treatment, 2 mg/g body weight", "result": "greatly improved their glucose tolerance"}, {"measurement": "glucose disposal (IPGTT)", "setting": "[6]; ob/ob mice 42 weeks old, 38 weeks of treatment, 1 mg/g body weight", "result": "improve glucosed disposal to nearly that of heterozygous mice"}, {"measurement": "activation of RXR isoforms", "setting": "[7]", "result": "does not activate"}, {"measurement": "body weight", "setting": "[8]", "result": "did not affect"}, {"measurement": "development of obesity on the high fat diet", "setting": "[8]", "result": "did not affect"}, {"measurement": "food intake", "setting": "[8]", "result": "did not affect"}]}
